Test systems include OVCAR-5; NCI-H522; SK-MEL-5; K562; CCRF-CEM; PC-3; SF-539; MDA-N; U-251; A549; Malme-3M; HCC 2998; MDA-MB-435; RPMI-8226; LOX IMVI; MDA-MB-231; HOP-92; EKVX; SNB-19; SW-620.
Holding throughout (experiment): inhibition of tumour cell growth, NCI panel, 48 h

SMILES strings stand for the structures.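 Protocol summary: plate cells (96-well), add compound at 5 concentrations, incubate 48 h, interpolate endpoints linearly. GI50 marks 50% less growth.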 Activity calls are given as the source filed them. Cut-off read from the data, not from the text of the source: active = GI50 up to about 1.1 µM and inactive = higher.

In the case of `CN(C)CCn1c(=O)c2ccc(NCCNCCO)c3c(=O)c4ccccc4n(c1=O)c23`, the GI50 in the experiment on OVCAR-5 was 0.298 µM (active); with NCI-H522, 0.0581 µM (active); in the experiment with SK-MEL-5, 0.0716 µM (active); in the experiment with K562 it was 0.0245 µM (active); in the experiment with CCRF-CEM, < 0.01 µM (active); in the experiment with PC-3, 0.182 µM (active). For the same compound, the GI50 was 0.0428 µM (active) in the experiment on SF-539; 0.328 µM (active) in the experiment with MDA-N; 0.0468 µM (active) with U-251; < 0.0121 µM (active) with A549; 0.336 µM (active) in the experiment with Malme-3M; < 0.0329 µM (active) with HCC 2998. Also, the GI50 in the experiment on MDA-MB-435 is 0.228 µM (active); in the experiment on RPMI-8226 it was < 0.0394 µM (active); in the experiment on LOX IMVI it was 0.0341 µM (active); in the experiment on MDA-MB-231, 0.22 µM (active); in the experiment on HOP-92 it was 0.03 µM (active); in the experiment on EKVX it was 0.231 µM (active). Besides, the GI50 was 0.182 µM (active) in the experiment on SNB-19 and 0.027 µM (active) with SW-620.
As to `Cn1c(=O)c2c(ncn2CCCCOc2ccc3c(c2)[n+]([O-])nc(N)[n+]3[O-])n(C)c1=O`, the GI50 in the experiment on NCI-H522 is 16.4 µM (inactive); in the experiment on SK-MEL-5 it was 9.38 µM (inactive); in the experiment on K562, 20.9 µM (inactive); with CCRF-CEM it was 32.7 µM (inactive); in the experiment on PC-3 it was 21.3 µM (inactive); with SF-539, 21.1 µM (inactive). Besides, the GI50 in the experiment on MDA-N was 26.1 µM (inactive); with U-251, 18.3 µM (inactive); in the experiment on A549 it was 65.6 µM (inactive); in the experiment on Malme-3M it was 21.1 µM (inactive); with HCC 2998, 19.2 µM (inactive); in the experiment on MDA-MB-435, 11.8 µM (inactive). The GI50 is 30.5 µM (inactive) with RPMI-8226; 30.7 µM (inactive) in the experiment with LOX IMVI; 30.5 µM (inactive) with MDA-MB-231; 4.76 µM (inactive) with HOP-92; 28.7 µM (inactive) with EKVX; 31.1 µM (inactive) in the experiment with SNB-19. For the same compound, the GI50 with SW-620 is 39.6 µM (inactive).
`COc1cccc(C2c3cc4c(cc3OC(N3CCCC3)C2C)OCO4)c1O` (stereo unspecified): the GI50 with OVCAR-5 was 11.3 µM (inactive); in the experiment with NCI-H522, 4.44 µM (inactive); in the experiment on SK-MEL-5 it was 3.38 µM (inactive); in the experiment on K562, 3.74 µM (inactive); in the experiment on CCRF-CEM it was 4.69 µM (inactive); with PC-3, 4.49 µM (inactive). For the same compound, the GI50 in the experiment on SF-539 is 3.03 µM (inactive); in the experiment on MDA-N it was 1.64 µM (inactive); with U-251, 3.49 µM (inactive); with A549, 5.83 µM (inactive); in the experiment on Malme-3M, 6.17 µM (inactive); with HCC 2998 it was 12.2 µM (inactive). The GI50 with MDA-MB-435 was 1.64 µM (inactive); in the experiment with RPMI-8226, 4.23 µM (inactive); in the experiment on LOX IMVI, 5.56 µM (inactive); with MDA-MB-231 it was 8.02 µM (inactive); with HOP-92 it was 7.82 µM (inactive); in the experiment on EKVX it was 9.68 µM (inactive). The GI50 was 7.6 µM (inactive) with SNB-19 and 3.74 µM (inactive) in the experiment with SW-620.
In the case of `CCOC(=O)Cn1sc2ncc([N+](=O)[O-])cc2c1=O`, the GI50 with OVCAR-5 is 19.2 µM (inactive); with NCI-H522, 18.8 µM (inactive); in the experiment on SK-MEL-5, 27.5 µM (inactive); with K562 it was 2.84 µM (inactive); in the experiment with CCRF-CEM, 2.07 µM (inactive); in the experiment with PC-3, 14.8 µM (inactive). Besides, the GI50 with SF-539 was 19.5 µM (inactive); in the experiment on MDA-N, 12.4 µM (inactive); with A549, 19.3 µM (inactive); in the experiment with Malme-3M it was 17.9 µM (inactive); with HCC 2998 it was 16.4 µM (inactive); in the experiment on MDA-MB-435 it was 16.2 µM (inactive). The GI50 in the experiment on RPMI-8226 was 8 µM (inactive); in the experiment with LOX IMVI it was 13.6 µM (inactive); in the experiment with MDA-MB-231, 15.7 µM (inactive); in the experiment on HOP-92, 13.3 µM (inactive); in the experiment with EKVX, 27.9 µM (inactive); in the experiment on SW-620 it was 16.1 µM (inactive).
Turning to `CCOC(=O)NC(Nc1ccc(C)cc1)(C(F)(F)F)C(F)(F)F`, the GI50 in the experiment on OVCAR-5, in the experiment on NCI-H522, in the experiment on SK-MEL-5, with K562, in the experiment on CCRF-CEM and in the experiment with PC-3 was > 100 µM (inactive) throughout. The GI50 in the experiment on SF-539, in the experiment on MDA-N, with U-251, with A549, in the experiment on Malme-3M and in the experiment with HCC 2998 was > 100 µM (inactive) in each case. The GI50 in the experiment on MDA-MB-435, in the experiment on RPMI-8226, in the experiment with LOX IMVI, with MDA-MB-231, with HOP-92 and in the experiment on SNB-19 was > 100 µM (inactive) in each case. Also, the GI50 with SW-620 is > 100 µM (inactive).
Take `O=S(=O)(O)c1ccc(/N=N/c2ccc(/N=N/c3c(O)ccc4ccc(S(=O)(=O)O)cc34)cc2)cc1`: the GI50 in the experiment on OVCAR-5, in the experiment on NCI-H522, in the experiment with SK-MEL-5, in the experiment with K562, in the experiment on CCRF-CEM and in the experiment on PC-3 was > 100 µM (inactive) in each case. Besides, the GI50 in the experiment with SF-539, in the experiment with MDA-N, in the experiment with U-251, in the experiment with A549, in the experiment with Malme-3M and with HCC 2998 was > 100 µM (inactive) each time. Also, the GI50 with MDA-MB-435, in the experiment on RPMI-8226, in the experiment on MDA-MB-231, in the experiment with HOP-92, in the experiment on EKVX and in the experiment with SNB-19 was > 100 µM (inactive) in each case. Further, the GI50 in the experiment with SW-620 was > 100 µM (inactive).
Regarding `CC(C)CC1C(=O)NCCC(NC(=O)C(Cc2ccc(OC(C)(C)C)cc2)NC(=O)OC(C)(C)C)C(=O)NC(Cc2ccccc2)C(=O)NC(Cc2ccccc2)NC1=O` (stereo unspecified), the GI50 with OVCAR-5 was 6.25 µM (inactive); with NCI-H522 it was 11.6 µM (inactive); in the experiment on SK-MEL-5, 31 µM (inactive); in the experiment on K562 it was 3.02 µM (inactive); with CCRF-CEM, 4.3 µM (inactive); in the experiment with PC-3, 14.5 µM (inactive). Further, the GI50 in the experiment with SF-539 was 23.2 µM (inactive); with MDA-N, 5.82 µM (inactive); with U-251, 12.8 µM (inactive); in the experiment on Malme-3M it was 13.6 µM (inactive); in the experiment on HCC 2998, 17.3 µM (inactive); in the experiment on MDA-MB-435, 2.82 µM (inactive). Moreover, the GI50 with RPMI-8226 is 9.75 µM (inactive); in the experiment with LOX IMVI, 4.6 µM (inactive); in the experiment on MDA-MB-231, 4.9 µM (inactive); with HOP-92, 11.2 µM (inactive); in the experiment with EKVX, 4.89 µM (inactive); with SNB-19 it was 14.4 µM (inactive). In the experiment on SW-620, the GI50 is 2.54 µM (inactive).
As for `CCOC(=O)C(C)(C)/C=C\C(Cl)=C(Cl)Cl`, the GI50 in the experiment on OVCAR-5 was > 100 µM (inactive); with NCI-H522 it was > 100 µM (inactive); in the experiment on SK-MEL-5 it was > 100 µM (inactive); in the experiment on K562, > 100 µM (inactive); in the experiment on CCRF-CEM, 71.6 µM (inactive); with PC-3, > 100 µM (inactive). In addition, the GI50 with SF-539, with MDA-N, in the experiment with A549, with Malme-3M, in the experiment with HCC 2998 and in the experiment on MDA-MB-435 was > 100 µM (inactive) in each case. The GI50 with RPMI-8226, in the experiment on LOX IMVI, with MDA-MB-231, in the experiment on HOP-92, in the experiment with EKVX and in the experiment with SNB-19 was > 100 µM (inactive) throughout. Further, the GI50 with SW-620 is > 100 µM (inactive).
On to `CC(=O)OCC1OC(SC2=NC(=O)/C(=C/c3ccccc3)S2)C(OC(C)=O)C(OC(C)=O)C1OC(C)=O` (stereo unspecified), for which the GI50 is > 100 µM (inactive) with OVCAR-5; 32.9 µM (inactive) in the experiment on NCI-H522; 18.8 µM (inactive) in the experiment with SK-MEL-5; 28.4 µM (inactive) in the experiment with CCRF-CEM; 40.1 µM (inactive) in the experiment on PC-3; 23 µM (inactive) with SF-539. Besides, the GI50 in the experiment on MDA-N is 26.8 µM (inactive); in the experiment with U-251, 30.9 µM (inactive); in the experiment with A549, 44 µM (inactive); with Malme-3M, 23.7 µM (inactive); in the experiment with HCC 2998, 28.8 µM (inactive); in the experiment with MDA-MB-435 it was 17 µM (inactive). The GI50 in the experiment with RPMI-8226 was 24.4 µM (inactive); in the experiment on LOX IMVI, 22.4 µM (inactive); in the experiment on MDA-MB-231, 23.3 µM (inactive); with HOP-92, 15.7 µM (inactive); in the experiment with EKVX, 21.2 µM (inactive); in the experiment with SNB-19 it was 35.1 µM (inactive). In addition, the GI50 in the experiment with SW-620 is 23.8 µM (inactive).
As to `CCOC(=O)CCC(NC(=O)c1ccc(Oc2nc3c(N)cc(C(F)(F)F)cc3nc2-c2ccccc2)cc1)C(=O)OCC` (stereo unspecified), the GI50 is 5.96 µM (inactive) in the experiment with NCI-H522; 17.6 µM (inactive) with SK-MEL-5; > 100 µM (inactive) in the experiment on K562; > 100 µM (inactive) with CCRF-CEM; 8.32 µM (inactive) in the experiment with PC-3; 1.67 µM (inactive) with SF-539. Moreover, the GI50 in the experiment on MDA-N was 63.1 µM (inactive); with U-251 it was 32.6 µM (inactive); in the experiment with A549 it was 7.78 µM (inactive); in the experiment with Malme-3M, 12.4 µM (inactive); in the experiment with HCC 2998, 67.8 µM (inactive); in the experiment on MDA-MB-435 it was 59.8 µM (inactive). In addition, the GI50 with RPMI-8226 is > 45.9 µM (inactive); in the experiment with LOX IMVI, > 27.1 µM (inactive); in the experiment on MDA-MB-231 it was 19 µM (inactive); in the experiment with HOP-92 it was 56.8 µM (inactive); in the experiment with EKVX, 47.1 µM (inactive); in the experiment on SNB-19, 30.5 µM (inactive). The GI50 in the experiment on SW-620 was > 100 µM (inactive).

The record behind these values is ChEMBL document CHEMBL1201862, “PubChem BioAssay data set” (2004).
